Results from ChEMBL document CHEMBL1201862, “PubChem BioAssay data set” (2004).
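Following 48 hours of exposure in 96-well plates, responses at five concentrations were used to interpolate endpoints linearly. Abbreviation: GI50, concentration required for 50% inhibition of growth.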 Calls of active or inactive are those of the source. Rule as the data show it: active = GI50 up to about 1.1 µM and inactive = higher.

Experiments:
Assay in all cases: NCI tumour cell line growth inhibition, 48 h
786-0 = tested on: 786-0
A549 = tested on: A549
COLO 205 = tested on: COLO 205
DU-145 = tested on: DU-145
EKVX = tested on: EKVX
HOP-62 = tested on: HOP-62
HOP-92 = tested on: HOP-92
K562 = tested on: K562
M14 = tested on: M14
MCF7 = tested on: MCF7
MDA-MB-231 = tested on: MDA-MB-231
MOLT-4 = tested on: MOLT-4
OVCAR-4 = tested on: OVCAR-4
SK-MEL-2 = tested on: SK-MEL-2
SN12C = tested on: SN12C
SNB-19 = tested on: SNB-19
U-251 = tested on: U-251
NCI-H226 = tested on: NCI-H226
NCI-H522 = tested on: NCI-H522
RXF 393 = tested on: RXF 393

SMILES	GI50 (786-0)	GI50 (A549)	GI50 (COLO 205)	GI50 (DU-145)	GI50 (EKVX)	GI50 (HOP-62)	GI50 (HOP-92)	GI50 (K562)	GI50 (M14)	GI50 (MCF7)	GI50 (MDA-MB-231)	GI50 (MOLT-4)	GI50 (OVCAR-4)	GI50 (SK-MEL-2)	GI50 (SN12C)	GI50 (SNB-19)	GI50 (U-251)	GI50 (NCI-H226)	GI50 (NCI-H522)	GI50 (RXF 393)
CC1CN=C(N(C(=O)Nc2ccccc2)c2ccc(Cl)c(Cl)c2)S1 (configuration not stated)	31.1 µM (inactive)	25.9 µM (inactive)	> 10 µM (inactive)	45.8 µM (inactive)	23.3 µM (inactive)	97.3 µM (inactive)	17.1 µM (inactive)	> 10 µM (inactive)	38.7 µM (inactive)	19.8 µM (inactive)	18.2 µM (inactive)	> 10 µM (inactive)	75.3 µM (inactive)	18.9 µM (inactive)	16.6 µM (inactive)	70.6 µM (inactive)	> 10 µM (inactive)			
COc1ccc2c(c1)C(=O)C1CCC(=O)N1C2c1ccc2c(c1)OCO2 (configuration not stated)	24.8 µM (inactive)	21 µM (inactive)	8.65 µM (inactive)	18.2 µM (inactive)	20.3 µM (inactive)	18.6 µM (inactive)		3.36 µM (inactive)	12.9 µM (inactive)	4.83 µM (inactive)	12.2 µM (inactive)	2.74 µM (inactive)	25.4 µM (inactive)	13 µM (inactive)	12.1 µM (inactive)	13.8 µM (inactive)	15.2 µM (inactive)	15.7 µM (inactive)	5.04 µM (inactive)	
CC(NC(=O)C(N)CC(=O)O)NC(=O)N(C)C(C)(C)C (configuration not stated)	> 100 µM (inactive)	> 100 µM (inactive)	> 100 µM (inactive)	> 100 µM (inactive)	> 100 µM (inactive)	> 100 µM (inactive)		> 100 µM (inactive)	> 100 µM (inactive)	> 100 µM (inactive)	> 100 µM (inactive)	> 100 µM (inactive)	> 100 µM (inactive)	> 100 µM (inactive)	> 100 µM (inactive)	> 100 µM (inactive)	> 100 µM (inactive)	> 100 µM (inactive)	> 100 µM (inactive)	> 100 µM (inactive)
CN1C(=O)C(=CNc2ccc(Cl)cc2Cl)C(=O)N(C)C1=O	> 100 µM (inactive)	> 100 µM (inactive)	> 100 µM (inactive)		> 100 µM (inactive)	> 100 µM (inactive)	> 100 µM (inactive)	> 100 µM (inactive)	> 100 µM (inactive)	> 100 µM (inactive)	> 100 µM (inactive)	66.5 µM (inactive)	> 100 µM (inactive)	> 100 µM (inactive)	> 100 µM (inactive)	> 100 µM (inactive)	> 100 µM (inactive)	> 100 µM (inactive)	> 100 µM (inactive)	> 100 µM (inactive)
O=C(CC(C(=O)c1ccsc1)c1ccsc1)c1ccsc1 (configuration not stated)	> 100 µM (inactive)	68.5 µM (inactive)	> 100 µM (inactive)	> 100 µM (inactive)	75.2 µM (inactive)	> 100 µM (inactive)		54.6 µM (inactive)	50.2 µM (inactive)	70.6 µM (inactive)	> 100 µM (inactive)	35.6 µM (inactive)	62.1 µM (inactive)	> 100 µM (inactive)	> 100 µM (inactive)	> 100 µM (inactive)	> 100 µM (inactive)	> 100 µM (inactive)		
Cc1nn(CNc2ccc(F)c(Cl)c2)c(=S)n1/N=C/c1ccc(-c2ccc(Cl)cc2Cl)o1	15.3 µM (inactive)			16.9 µM (inactive)	16.4 µM (inactive)	14.1 µM (inactive)		1.49 µM (inactive)	18.7 µM (inactive)	18.2 µM (inactive)	17.8 µM (inactive)	0.493 µM (active)	20.1 µM (inactive)	22.6 µM (inactive)			14.7 µM (inactive)	17.2 µM (inactive)	14.4 µM (inactive)	17.9 µM (inactive)
CC1(C)Oc2ccc3c(=O)c(-c4ccccc4)c(-c4ccccc4)oc3c2C1C(=O)O (configuration not stated)	> 100 µM (inactive)	> 100 µM (inactive)	> 100 µM (inactive)	> 100 µM (inactive)	> 100 µM (inactive)	> 100 µM (inactive)		63 µM (inactive)	> 100 µM (inactive)	> 100 µM (inactive)	> 100 µM (inactive)	48.3 µM (inactive)	77.1 µM (inactive)	> 100 µM (inactive)	> 100 µM (inactive)		> 100 µM (inactive)	> 100 µM (inactive)	> 100 µM (inactive)	> 100 µM (inactive)
O=C(CN1CCOCC1)c1ccc2[nH]c(=O)oc2c1	> 100 µM (inactive)		> 100 µM (inactive)	> 100 µM (inactive)	> 100 µM (inactive)	> 100 µM (inactive)		> 100 µM (inactive)	> 100 µM (inactive)	> 100 µM (inactive)	> 100 µM (inactive)	> 100 µM (inactive)		> 100 µM (inactive)	> 100 µM (inactive)	> 100 µM (inactive)	> 100 µM (inactive)	> 100 µM (inactive)		> 100 µM (inactive)
COC(=O)/C=C\[C@@H]1[C@H](C)N1S(=O)(=O)c1ccc(C)cc1 (some centres not stated)	> 100 µM (inactive)	> 100 µM (inactive)	> 100 µM (inactive)	> 100 µM (inactive)		> 100 µM (inactive)		> 100 µM (inactive)	> 100 µM (inactive)	> 100 µM (inactive)	> 100 µM (inactive)	> 100 µM (inactive)	> 100 µM (inactive)	> 100 µM (inactive)	> 100 µM (inactive)	> 100 µM (inactive)	> 100 µM (inactive)	> 100 µM (inactive)	> 100 µM (inactive)	> 100 µM (inactive)
COc1ccc(Oc2cccc(/C=C3/C(=O)Nc4ccccc43)c2)cc1	11.8 µM (inactive)	7.19 µM (inactive)	3.73 µM (inactive)	14.1 µM (inactive)	10.9 µM (inactive)	14.8 µM (inactive)	3.53 µM (inactive)	1.57 µM (inactive)	11.9 µM (inactive)	3.41 µM (inactive)		4 µM (inactive)	14 µM (inactive)	11.1 µM (inactive)	10.9 µM (inactive)	6.1 µM (inactive)	1.91 µM (inactive)		6.61 µM (inactive)	3.94 µM (inactive)
c1ccc2c(Cc3nnc4sc(SSc5nn6c(Cc7c[nH]c8ccccc78)nnc6s5)nn34)c[nH]c2c1	20.8 µM (inactive)	28.8 µM (inactive)	21.1 µM (inactive)	26.3 µM (inactive)	23 µM (inactive)	16.2 µM (inactive)	31 µM (inactive)	17.4 µM (inactive)	18.5 µM (inactive)	15.1 µM (inactive)		8.93 µM (inactive)	58.1 µM (inactive)		18.7 µM (inactive)	31 µM (inactive)	21.7 µM (inactive)		17.9 µM (inactive)	18.8 µM (inactive)
